# Reference: patent publication US8614064B2, “Methods of diagnosing atherosclerosis by measuring ApoCI” (The Johns Hopkins University, priority 2003, dated 2013)
# What was measured:
# ceramide = test: Measurement of the ceramide level (diacylglycerol kinase assay) in ASMC; assay type: cell-based, human
# Protocol: FIGS. 4A-4D depict the effect of ApoCI, ApoCI-enriched HDL, and ApoCI-poor HDL on the level of ceramide in ASMC. Confluent ASMC were incubated with ApoCI (2.5 μg/mL) with time (FIG. 4A, upper left) or with ApoCI-enriched HDL (1 μg apoA-I/mL medium) or ApoCI-poor HDL (5 μg apoA-I/mL medium) (FIG. 4B, upper right) for 30 minutes. FIG. 4C: The cells were incubated with ApoCI alone ([…]) for 5 minutes or preincubated with GW4869 (20 μmol/L) for 30 minutes. After addition of ApoCI (2.5 μg/mL), incubation was continued for 6 hours, 12 hours, and 24 hours. After incubation, cells were harvested and the levels of ceramide determined using the diacylglycerol kinase assay. The level of phosphate was measured and the data (mean±SD) were expressed as percentage of the total ceramide present in untreated cells (vehicle DMSO). *P<0.05. In a separate experiment (FIG. 4D, right), confluent cells were grown on cover slips and pretreated with serum-free medium for 30 minutes. The cells were then incubated with vehicle DMSO alone (control), ApoCI (2.5 μg/ML), or ApoCI (2.5 μg/mL) plus the N-SMase inhibitor GW4869 (20 μmol/L) for 24 hours. The cells were then washed, treated with a primary anticeramide antibody, washed with phosphate-buffered saline, and treated with a fluorescein isothiocyanate-conjugated anti-mouse IgG (FIG. 4C, lower panel).
# Cells were pelleted and extracted with chloroform-methanol-acetic acid 100:100:2 (v/v/v). Lipids in organic phase were dried in N2 atmosphere and re-extracted, and the organic phase was dried. Detergent solution (30 μl of 7.5%/n-octyl-β-glucopyranoside with 5 mM cardiolipin in 1 mM diethylenimine-pentaacetic acid) was added, and the samples were sonicated. Total inorganic phosphate level was measured employing the method of Bartlett et al. Bartlett, G R. (1959). J. Biol. Chem. 234, 449-458). Ceramide was measured using the sn-1, 2-diacylglycerolkinase-assay reagent system and labeling for 30 min with 1 mCi of [^32P] ATP in 10 μl of 5 mM ATP (Signorelli, P., and Hannun, Y. A. (2002) Meth. Enzymol. 345, 275-294). Diacylglycerol kinase was from Streptomyces species (Calbiochem, San Diego, Calif.). [^32P] ATP (specific activity 3000 Ci/mmol) was from New England Nuclear Company (Boston, Mass.). Ceramide-1-phosphate and diacylglycerol-1-phosphate were resolved by thin-layer chromatography on silica gel plates (Whatman, Clinton, N.J.), using a solvent composed of chloroform-acetone-methanol-acetic acid-water 10:4:3:2:1(v/v) and detected by autoradiography using an Instant Imager (Packard Canberra Company). Ceramide was expressed as pmol ceramide/nmol phosphate.
# N-SMase = test: Neutral sphingomyelinase assay in treated ASMC ([14C]sphingomyelin substrate); assay type: cell-based, human
# Protocol: FIGS. 3A-3C depict the effects of ApoCI, ApoCIII, TNF-α, ApoCI-enriched HDL, and ApoCI-poor HDL on the activity of N-SMase in ASMC. Confluent cultures of ASMC were preincubated for 30 minutes with serum-free (control) medium, then ApoCI (2.5 μg/mL medium), ApoCIII (2.5 μg/mL medium), TNF-α (20 ng/mL medium) (FIG. 3A, top), or ApoCI-enriched HDL (1 μg apoAI/mL medium), or ApoCI-poor HDL (5 μg apoA-I/mL medium) (FIG. 3B, middle) were added individually to cells. The cells were then incubated and harvested at the indicated time points, and the activity was of N-SMase determined using [^14C]sphingomyelin as substrate. The N-SMase activity in control cells was 22 nmol/h per milligram cell protein, and this value was considered as 100% activity. In a separate experiment (FIG. 3C bottom), cells (0.5×10^5) were seeded in P60 Petri dishes and grown in DMEM supplemented with 10% fetal bovine serum for 5 days. After preincubation of cells for 30 minutes in serum-free medium, increasing amounts of ApoCI were added. After incubation for 10 minutes, cells were harvested, and N-SMase activity was measured.
# After stimulation with ApoCI ApoCI-enriched HDL and ApoCI-poor HDL, the cells were washed with 5 ml of PBS and harvested. The pellets were stored frozen at −70° C. and resuspended in 0.5 ml of buffer (100 mM Tris-HCl pH 7.4, 0.1% Triton X-100, 1 mM EDTA and protease inhibitors). The cell suspension was sonicated 3 times (3-s bursts) using a probe sonicator and centrifuged at 500×g at 4° C. for 5 min. The supernatant was used as the enzyme source. 100 μg of protein was assayed for neutral sphingomyelinase activity in a buffer consisting of 50 mM Tris-HCl, pH 7.4, 0.1% Triton X-100, 0.1 mg of bovine serum albumin, 5 mM MgCl2 and […] of [^14C]sphingomyelin (specific activity 50 mCi/mmol, from American Radiolabled Chemicals (St. Louis, Mo.). The samples were incubated at 37° C. for 2 h and terminated with the addition of 1 ml of 10% trichloroacetic acid. The precipitate was pelleted (1000×g at 4° C. for 30 min) and 1 ml of the supernatant was extracted with 1 ml of anhydrous diethyl ether. About 0.5 ml of the aqueous phase was removed for liquid scintillation counting (Ghosh, N., and Chatterjee, S. (1998) J. Biol. Chem. 264, 12554-12561).
compound,measurement,setting,value
"Apolipoprotein C-I (TPDVSSALDKLKEFGNTLEDKARELISRIKQSELSAKMREWFSETFQKVKEKLKIDS; UniProt P02654 27-83, looked up) [ApoCI, 6.6-kDa single-chain plasma protein of 57 amino acids; purified human ApoCI purchased from Academy Bio-Medical Company]",maximum increase in ceramide level by ApoCI,"ceramide; ApoCI 2.5 μg/mL, by 5 minutes",1.7 fold
same,increase in the activity of N-SMase at 5 minutes,"N-SMase; 5 min, ApoCI 2.5 μg/mL, TNF-α 20 ng/mL, ApoCI-enriched HDL 1 μg apoA-I/mL, control 22 nmol/h per mg protein = 100%",~2 fold
same,"maximum increase in N-SMase activity, concentration dependence (FIG. 3C)","N-SMase; ApoCI 2.5 μg/mL medium, 10 min incubation",1.5 fold
"ApoCIII: purified human ApoCIII purchased from Academy Bio-Medical Company, used as negative control",pattern of N-SMase stimulation with time,"N-SMase; ApoCIII 2.5 μg/mL, ApoCI-poor HDL 5 μg apoA-I/mL, time course to 60 min",Such a pattern was not seen
O=C(/C=C/c1ccc(/C=C/C(=O)Nc2ccc(C3=NCCN3)cc2)cc1)Nc1ccc(C2=NCCN2)cc1 [GW4869],"effect of GW4869 on ApoCI-induced ceramide production, 24 hours","ceramide; GW4869 20 μmol/L, 24 hours",reversed it to a high level
same,"effect of GW4869 on cellular level of ceramide induced by ApoCI, 5 minutes and 6 hours","ceramide; GW4869 20 μmol/L, after 5 minutes and 6 hours of incubation",significantly decreased
same,"effect of GW4869 on ApoCI-induced ceramide production, 12 hours","ceramide; GW4869 20 μmol/L, after 12 hours of incubation",completely inhibited
